According to patent US8716493B2, “Multicyclic compounds and the use thereof” (Cephalon, Inc., priority 2000, dated 2014):
Counter-ions that a name gives are not always drawn. Like-named read-outs stand apart in the source and are kept apart here.

Biological target: recombinant human PARP (Homo sapiens, UniProt P09874)
Test: Measurement of PARP enzymatic activity (transfer of radiolabeled ADP-ribose from NAD+ to protein acceptor)
Assay type: biochemical
How it was run: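 Radiometric assay measuring transfer of [32P]ADP-ribose from NAD+ (100 μM, 2 uCi/mL label) to histone or PARP automodification, 12 min at room temperature; acid-insoluble radioactivity counted by scintillation.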

Chain of recombinant human PARP (P09874 whole entry): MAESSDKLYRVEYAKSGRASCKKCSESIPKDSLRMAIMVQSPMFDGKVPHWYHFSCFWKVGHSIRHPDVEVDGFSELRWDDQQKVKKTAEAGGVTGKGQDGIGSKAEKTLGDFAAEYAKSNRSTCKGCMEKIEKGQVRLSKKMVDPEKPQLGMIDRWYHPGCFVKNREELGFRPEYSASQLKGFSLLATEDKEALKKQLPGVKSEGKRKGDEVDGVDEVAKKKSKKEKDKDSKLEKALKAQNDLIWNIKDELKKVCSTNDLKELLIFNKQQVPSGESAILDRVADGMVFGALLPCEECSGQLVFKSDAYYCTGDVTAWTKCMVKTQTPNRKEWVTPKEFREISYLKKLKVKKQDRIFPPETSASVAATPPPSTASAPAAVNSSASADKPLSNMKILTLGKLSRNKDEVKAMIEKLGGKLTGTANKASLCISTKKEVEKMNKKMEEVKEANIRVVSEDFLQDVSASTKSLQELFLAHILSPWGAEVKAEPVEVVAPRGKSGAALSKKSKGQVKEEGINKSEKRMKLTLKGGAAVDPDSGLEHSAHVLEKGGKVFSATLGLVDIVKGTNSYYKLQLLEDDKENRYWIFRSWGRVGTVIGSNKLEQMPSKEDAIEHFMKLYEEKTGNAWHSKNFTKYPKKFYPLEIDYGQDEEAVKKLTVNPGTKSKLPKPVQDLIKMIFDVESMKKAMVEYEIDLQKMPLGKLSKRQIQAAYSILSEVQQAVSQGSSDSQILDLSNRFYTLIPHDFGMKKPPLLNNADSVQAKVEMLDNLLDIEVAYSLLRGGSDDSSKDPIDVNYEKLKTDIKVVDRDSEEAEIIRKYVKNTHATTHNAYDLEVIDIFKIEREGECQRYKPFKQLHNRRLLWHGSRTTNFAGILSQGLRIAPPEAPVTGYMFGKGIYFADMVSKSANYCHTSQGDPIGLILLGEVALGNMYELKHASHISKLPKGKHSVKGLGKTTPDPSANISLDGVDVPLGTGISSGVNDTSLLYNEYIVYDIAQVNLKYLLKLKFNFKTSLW

Compound | IC50 (Table 2, read-out: PARP IC50) | other results
CC(C)Oc1cccc2[nH]c3c4c(c5c(c3c12)C(=O)NC5=O)CCC4 [Compound 14h] |  | IC50 (Table 18, read-out: PARP IC50): 207 nM
O=C1NC(=O)c2c1c1c(c3[nH]c4ccc(S(=O)(=O)O)cc4c23)CCC1 [Compound 2ae] | 8 nM | 
COC(=O)C1CCCN1CC(=O)c1ccc2[nH]c3c4c(c5c(c3c2c1)C(=O)NC5=O)CCC4 (stereo not shown) [Compound 4a] | 12 nM | 
NCCC(=O)N1C(=O)c2c3c(c4[nH]c5ccccc5c4c2C1=O)CCC3 [Compound 1l] |  | IC50 (Table 1, read-out: PARP IC50): 160 nM
Cc1nc(-c2ccc3[nH]c4c5c(c6c(c4c3c2)C(=O)NC6=O)CCC5)c(Br)s1 [Compound 3c] | 84 nM | 
CC(=O)NCc1nc(-c2ccc3[nH]c4c5c(c6c(c4c3c2)C(=O)NC6=O)CCC5)cs1 [Compound 3n] | 20 nM | 
COc1cccc2[nH]c3c4c(c5c(c3c12)C(=O)N(CN1CCOCC1)C5=O)CCC4 [Compound 16d] |  | IC50 (Table 18, read-out: PARP IC50): 11 nM
CCN(CC)Cc1ccc2[nH]c3c4c(c5c(c3c2c1)C(=O)NC5=O)CCC4 [Compound 2bm] | 17 nM | 
COc1ccc2c(c1)[nH]c1c3c(c4c(c12)C(=O)NC4=O)CCC3 [Compound 14a] |  | IC50 (Table 7, read-out: PARP IC50): 224 nM
CN(C)CN1C(=O)c2c3c(c4[nH]c5ccccc5c4c2C1=O)CCC3 [Compound 16i] |  | IC50 (Table 18, read-out: PARP IC50): 53 nM
NCC(=O)NCc1ccc2[nH]c3c4c(c5c(c3c2c1)C(=O)NC5=O)CCC4 [Compound 2x, 3-(N-(2-(Amino)acetyl)aminomethyl)-5,7,8,9,10,11-hexahydrocyclopent[a]pyrrolo[3,4-c]carbazole-5(6H), 7-dione] | 45 nM | 
CC(C)(C)OC(=O)NCc1ccc2[nH]c3c4c(c5c(c3c2c1)C(=O)NC5=O)CCC4 [Compound 2ad, 3-(N-Boc-aminomethyl)-5,7,8,9,10,11-hexahydrocyclopent[a]pyrrolo[3,4-c]carbazole-5(6H), 7-dione] | 93 nM | 
CCOCCOc1cccc2[nH]c3c4c(c5c(c3c12)C(=O)NC5=O)CCC4 [Compound 14i] |  | IC50 (Table 18, read-out: PARP IC50): 36 nM
CC(O)c1ccc2[nH]c3c4c(c5c(c3c2c1)C(=O)NC5=O)CCC4 (stereo not shown) [Compound 2ax] | 102 nM | 
O=C1NC(=O)c2c1c1c(c3[nH]c4ccc(COCCc5ccccn5)cc4c23)CCC1 [Compound 2df] | 104 nM | 
COCCOc1ccnc2[nH]c3c4c(c5c(c3c12)C(=O)NC5=O)CCC4 [Compound 8aa] |  | IC50 (Table 18, read-out: PARP IC50): 10 nM
O=C1NC(=O)c2c1c1c(c3[nH]c4ccc(OC(=O)N5CCOCCOCCOCC5)cc4c23)CCC1 [Compound 15o] |  | IC50 (PARP IC50, Table 18): 76 nM
O=C(NCc1cccnc1)Oc1ccc2[nH]c3c4c(c5c(c3c2c1)C(=O)NC5=O)CCC4 [Compound 15f] |  | IC50 (PARP IC50 (nM), Table 8): 34 nM
O=C(CCC(=O)c1ccc2[nH]c3c4c(c5c(c3c2c1)C(=O)NC5=O)CCC4)NCCO [Compound 4g] | 9 nM | 
O=C(Cn1cnnn1)NCc1ccc2[nH]c3c4c(c5c(c3c2c1)C(=O)NC5=O)CCC4 [Compound 2by] | 14 nM | 
CC(C)(C)OC(=O)N1CCN(C(=O)CCC(=O)c2ccc3[nH]c4c5c(c6c(c4c3c2)C(=O)NC6=O)CCC5)CC1 [Compound 4q] | 10 nM | 
COC(=O)CCCC(=O)NCc1ccc2[nH]c3c4c(c5c(c3c2c1)C(=O)NC5=O)CCC4 [Compound 2aa, 3-(N-(4-(Methoxycarbonyl)butanoyl)aminomethyl)-5,7,8,9,10,11-hexahydrocyclopent[a]pyrrolo[3,4-c]carbazole-5(6H), 7-dione] | 9 nM | 
CCN(CC)CCCN1C(=O)c2c3c(c4[nH]c5ccccc5c4c2C1=O)CCC3 [Compound 1h] |  | IC50 (Table 1, read-out: PARP IC50): 819 nM

Compound | IC50 (Table 2, read-out: PARP IC50) | other results
O=C1NC(=O)c2c1c1c(c3[nH]c4ccc(OC(=O)N5CCCCC5)cc4c23)CCC1 [Compound 15p] |  | IC50 (PARP IC50, Table 18): 82 nM
NCCNC(=O)CCC(=O)c1ccc2[nH]c3c4c(c5c(c3c2c1)C(=O)NC5=O)CCC4 [Compound 4e] | 22 nM | 
CC(C)OCCOc1cccc2[nH]c3c4c(c5c(c3c12)C(=O)NC5=O)CCC4 [Compound 14j] |  | IC50 (Table 18, read-out: PARP IC50): 70 nM
CN(CCc1ccccn1)C(=O)Oc1ccc2[nH]c3c4c(c5c(c3c2c1)C(=O)NC5=O)CCC4 [Compound 15h] |  | IC50 (PARP IC50 (nM), Table 8): 39 nM
O=C1NC(=O)c2c1c1c(c3[nH]c4ccc(OCCN5CCOCC5)cc4c23)CCC1 [Compound 2at] | 22 nM | 
O=C1NC(=O)c2c1c1c(c3[nH]c4cccc(O)c4c23)CCC1 [Compound 14c] |  | IC50 (Table 18, read-out: PARP IC50): 176 nM
COc1ccc2[nH]c3c4c(c5c(c3c2c1OC)C(=O)NC5=O)CCC4 [Compound 14l] |  | IC50 (Table 18, read-out: PARP IC50): 21 nM
O=C1NC(=O)c2c1c1c(c3[nH]c4nc(O)c(Br)cc4c23)CCC1 [Compound 8p] |  | IC50 (Table 18, read-out: PARP IC50): 20 nM
COc1cnc2[nH]c3c4c(c5c(c3c2c1)C(=O)NC5=O)CCC4 [Compound 8w] |  | IC50 (Table 18, read-out: PARP IC50): 4 nM
CN(CC1CCNCC1)C(=O)c1ccc2[nH]c3c4c(c5c(c3c2c1)C(=O)NC5=O)CCC4 [Compound 2cy] | 23 nM | 
O=C1NC(=O)c2c1c1c(c3[nH]c4ccc(C(=O)N5CCC6(CC5)OCCO6)cc4c23)CCC1 [Compound 2db] |  | IC50: 11 nM
CS(=O)(=O)Cc1nc(-c2ccc3[nH]c4c5c(c6c(c4c3c2)C(=O)NC6=O)CCC5)cs1 [Compound 3z] | 38 nM | 
CCOCCOc1ccnc2[nH]c3c4c(c5c(c3c12)C(=O)NC5=O)CCC4 [Compound 8ab] |  | IC50 (Table 18, read-out: PARP IC50): 11 nM
O=C(Cn1cncn1)c1ccc2[nH]c3c4c(c5c(c3c2c1)C(=O)NC5=O)CCC4 [Compound 2n] | 15 nM | 
N#Cc1c[nH]c2c3c(c4c(c12)C(=O)NC4=O)CCC3 [Compound 8d, 3-Cyano-1,6,7,8-tetrahydrocyclopent[g]indole-4,5-dicarboxylate imide] |  | IC50 (Table 4, read-out: PARP IC50): 6 nM
CCCN(CCC)Cc1ccc2[nH]c3c4c(c5c(c3c2c1)C(=O)NC5=O)CCC4 [Compound 2bl] | 16 nM | 
O=C(NCCc1ccccn1)Oc1ccc2[nH]c3c4c(c5c(c3c2c1)C(=O)NC5=O)CCC4 [Compound 15m] |  | IC50 (PARP IC50 (nM), Table 8): 31 nM
COC(=O)CCC(=O)NCc1ccc2[nH]c3c4c(c5c(c3c2c1)C(=O)NC5=O)CCC4 [Compound 2z, 3-(N-(3-(Methoxycarbonyl)propanoyl)aminomethyl)-5,7,8,9,10,11-hexahydrocyclopent[a]pyrrolo[3,4-c]carbazole-5(6H), 7-dione] | 10 nM | 
O=C(O)CCCC(=O)NCc1ccc2[nH]c3c4c(c5c(c3c2c1)C(=O)NC5=O)CCC4 [Compound 2ac, 3-(N-(4-(Carboxy)butanoyl)aminomethyl)-5,7,8,9,10,11-hexahydrocyclopent[a]-pyrrolo[3,4-c]carbazole-5(6H), 7-dione] | 48 nM | 
O=C1NC(=O)c2c1c1c(c3[nH]c4ccc(CNCc5ccccc5)cc4c23)CCC1 [Compound 2bq] | 26 nM | 
COCCNC(=O)Oc1ccc2[nH]c3c4c(c5c(c3c2c1)C(=O)NC5=O)CCC4 [Compound 15c] |  | IC50 (PARP IC50 (nM), Table 8): 40 nM
O=C(CCC(=O)N1CCCCC1)c1ccc2[nH]c3c4c(c5c(c3c2c1)C(=O)NC5=O)CCC4 [Compound 4p] | 10 nM | 
O=C1NC(=O)c2c1c1c(c3[nH]c4ccc(CNS(=O)(=O)c5ccccc5)cc4c23)CCC1 [Compound 2cd] | 39 nM | 

Compound | IC50 (Table 2, read-out: PARP IC50) | other results
O=C(NCCc1ccccn1)c1ccc2[nH]c3c4c(c5c(c3c2c1)C(=O)NC5=O)CCC4 [Compound 2cv] | 18 nM | 
O=C1NC(O)c2c1c1c(c3[nH]c4ccccc4c23)CCC1 (stereo not shown) [Compound 2ay] | 408 nM | 
NC(CCCNc1nc(-c2ccc3[nH]c4c5c(c6c(c4c3c2)C(=O)NC6=O)CCC5)cs1)C(=O)O (stereo not shown) [Compound 3f] | 22 nM | 
O=C1NC(=O)c2c1c1c(c3[nH]c4ccc(OC(=O)N5CCOCC5)cc4c23)CCC1 [Compound 15a] |  | IC50 (PARP IC50 (nM), Table 8): 35 nM
O=C1NC(=O)c2c1c1c(c3[nH]c4ccc(Br)cc4c23)CCC1 [Compound 2a] | 25 nM | 
O=C1NC(=O)c2c1c1c(c3[nH]c4nccc(Cl)c4c23)CCC1 [Compound 8z] |  | IC50 (Table 18, read-out: PARP IC50): 9 nM
CN(C)CCOC(=O)c1ccc2[nH]c3c4c(c5c(c3c2c1)C(=O)NC5=O)CCC4 [Compound 2cz] | 30 nM | 
O=C(CCC(=O)N1CCCC1C(=O)O)c1ccc2[nH]c3c4c(c5c(c3c2c1)C(=O)NC5=O)CCC4 (stereo not shown) [Compound 4j] | 2 nM | 
O=c1[nH][nH]c(=O)c2c1c1c(c3[nH]ccc32)CCC1 [Compound 8e, 1,6,7,8-Tetrahydrocyclopent[g]indole-4,5-dicarboxylate hydrazide] |  | IC50 (Table 4, read-out: PARP IC50): 1820 nM
CCC(=O)NCc1ccc2[nH]c3c4c(c5c(c3c2c1)C(=O)NC5=O)CCC4 [Compound 2s, 3-(Propanoylaminomethyl)-5,7,8,9,10,11-hexahydrocyclopent[a]pyrrolo[3,4-c]carbazole-5(6H), 7-dione] | 28 nM | 
COc1ccc2[nH]c3c4c(c5c(c3c2c1)C(=O)NC5=O)CCC4 [Compound 2ap] | 32 nM | 
CC(C)NCc1ccc2[nH]c3c4c(c5c(c3c2c1)C(=O)NC5=O)CCC4 [Compound 2br] | 25 nM | 
NCCCC[C@H](N)C(=O)n1c2ccccc2c2c3c(c4c(c21)CCC4)C(=O)NC3 [Compound 1v, 11-L-Lysyl-5,7,8,9,10,11-hexahydrocyclopent[a]pyrrolo[3,4-c]carbazole-7(6H)-one dihydrochloride] |  | IC50 (Table 1, read-out: PARP IC50): 1400 nM
CCOc1ccnc2[nH]c3c4c(c5c(c3c12)C(=O)NC5=O)CCC4 [Compound 8y] |  | IC50 (Table 18, read-out: PARP IC50): 5 nM
CC(C)(C)OC(=O)NCCC(=O)NCc1ccc2[nH]c3c4c(c5c(c3c2c1)C(=O)NC5=O)CCC4 [Compound 2ca] | 95 nM | 
CC(=O)Oc1ccc2[nH]c3c4c(c5c(c3c2c1)C(=O)NC5=O)CCC4 [Compound 2au] | 33 nM | 
NC(=O)c1ccc2[nH]c3c4c(c5c(c3c2c1)C(=O)NC5=O)CCC4 [Compound 2bh] | 31 nM | 
CC(C)(C)C(=O)OCc1nc(-c2ccc3[nH]c4c5c(c6c(c4c3c2)C(=O)NC6=O)CCC5)cs1 [Compound 3y] | 60 nM | 
CO[n+]1cccc2c3c4c(c5c(c3[nH]c21)CCC5)C(=O)NC4=O [Compound 8o] |  | IC50 (Table 18, read-out: PARP IC50): 4 nM
CC(C)(C)S(=O)(=O)Cc1nc(-c2ccc3[nH]c4c5c(c6c(c4c3c2)C(=O)NC6=O)CCC5)cs1 [Compound 3p] | 21 nM | 
CC(=O)Nc1nc(-c2ccc3[nH]c4c5c(c6c(c4c3c2)C(=O)NC6=O)CCC5)cs1 [Compound 3i] | 54 nM | 
